Assays:
[1] = system: caspase-3 activity in SH-SY5Y cells; test: Caspase-3 activity after exposure to HEWL aggregates; assay type: cell-based, human; conditions: 24 h; for Prevention of the apoptotic response (caspase-3 activation) induced by aggregates: 2 µM HEWL aggregates formed in the presence of 0.32 µM compound
Procedure: (§1) We then assessed the cytotoxicity of HEWL aggregates, formed in the absence or presence of compounds 1–6, according to the aggregation protocol described for the ThT experiments. HEWL aggregates were collected by centrifugation, dried under N2, dissolved in cell culture medium, and added to SH-SY5Y human neuroblastoma cells at a concentration of 2 µM (monomer equivalents). The ability of the resulting aggregates to cause cellular dysfunction was assessed by performing the MTT reduction inhibition assay, a widely used indicator of mitochondrial dysfunction. […] Very similar results were obtained by measuring the activity of caspase-3, a well-recognized apoptotic marker. A significant activation of caspase-3 (320 ± 12%, as compared to untreated cells) was observed following treatment for 24 h of SH-SY5Y cells with HEWL aggregates at 2 µM (Figure 7B).
(§2) Authenticated human neuroblastoma SH-SY5Y cells were purchased from American Type Culture Collection (ATCC) (Manassas, VA, USA) and they tested negative for mycoplasma contaminations. SH-SY5Y cells were cultured in Dulbecco’s modified Eagle’s medium (DMEM), F-12 Ham with 25 mM HEPES and NaHCO3 (1:1) supplemented with 10% fetal bovine serum (FBS), 1.0 mM glutamine and 1.0% penicillin and streptomycin solution. Cells were maintained in a 5.0% CO2 humidified atmosphere at 37 °C and grown until 80% confluence for a maximum of 20 passages.
HEWL aggregates were formed in the absence or in the presence of 0.32 µM of compounds 1–6 as described in the previous section and then added to the cell culture medium of SH-SY5Y cells seeded on glass coverslips for 24 h at 2 μM (monomer equivalents). Caspase-3 activity was then analyzed by using FAM FLICA^TM caspases 3 & 7 solution (caspase 3 & 7 FLICA kit FAM-DEVDFMK, Immunochemistry Technologies, LLC, Bloomington, MN, USA). Cell fluorescence was analyzed by the TCS SP8 scanning confocal microscopy system (Leica Microsystems, Mannheim, Germany) equipped with an argon laser source, as previously reported. A series of 1.0 μm thick optical sections (1024 × 1024 pixels) was taken through the cell depth for each sample using a Leica Plan Apo 63 × oil immersion objective for fluorescence measurement at 488 nm. The confocal microscope was set at optimal acquisition conditions, e.g., pinhole diameters, detector gain, and laser powers. Settings were maintained constant for each analysis.

[2] = system: SH-SY5Y human neuroblastoma cells; test: MTT reduction test with HEWL aggregates; assay type: cell-based; conditions: for Rescue of cell viability (MTT reduction): 2 µM HEWL aggregates formed in the presence of 0.32 µM compound
Procedure: as §1, §2
HEWL samples pre-incubated for 48 h under aggregating conditions in the absence or presence of 0.32 µM compounds 1–6 were centrifuged and the pellets were dried under N2 to remove any compounds and DMSO, dissolved in cell culture medium at a final HEWL concentration of 2 μM (monomer equivalents), and added to SH-SY5Y cells seeded in 96-well plates for 24 h at 37 °C. The cell medium was then removed and the MTT solution (0.5 mg/mL in RPMI) was added to the cells for 4 h. The medium was then aspirated, and the formazan product was solubilized with cell lysis buffer (20% SDS, 50% N, N-dimethylformamide, pH 4.7) for 1 h, as previously described.

[3] = biological target: T1, hen egg white lysozyme (HEWL) (Gallus gallus, UniProt P00698); test: Congo red (CR) assay of HEWL aggregation; assay type: biochemical; conditions: 0.32 µM compound; for CR absorbance relative to that measured in the absence of the compounds: HEWL pre-incubated 48 h under aggregating conditions
T1 construct: Hen egg white lysozyme (HEWL), thioflavin T (ThT), and Congo red (CR) were purchased from Sigma-Aldrich; purchased Sigma-Aldrich (St. Louis, MO, USA); host or cells: hen egg white (per the product name)
T1 sequence (P00698 19-147): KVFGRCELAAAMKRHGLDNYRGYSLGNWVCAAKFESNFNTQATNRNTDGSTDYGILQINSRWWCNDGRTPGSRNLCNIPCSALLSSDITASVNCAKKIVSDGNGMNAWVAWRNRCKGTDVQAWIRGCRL
Procedure: Aliquots of the same samples used for ThT experiments were also used to carry out the CR assays. […] The higher CR absorbance obtained in the presence of HEWL is likely to originate from the presence of protein aggregates that scatter light, whereas the red shift of the peak from 490 to 520–540 nm indicates the presence of β-sheet containing aggregates.
(§3) HEWL concentration was determined by optical absorption at 280 nm (ε280 = 2.65 L·g^−1·cm^−1). HEWL was dissolved to a concentration of 2 mg/mL (140 µM) in 50 mM glycine buffer, pH 2.5, centrifuged for 10 min at 13,000 rpm, then incubated at 57 °C for the specified time lengths in the absence or presence of the indicated concentrations of compounds 1–6, under gentle stirring at 250 rpm by a Teflon magnetic bar.
Since compounds 1–6 have optical absorption spectra partially overlapped to that of CR, all protein samples were centrifuged at 10,000 rpm and the pellets resuspended in 50 mM glycine buffer, pH 2.5, at room temperature. A mother solution of 20 mM CR was prepared in 5 mM sodium phosphate buffer, 150 mM NaCl, pH 7.4, it was then filtered using a center-glass N4 filter and stored at 4 °C, until it was placed at room temperature immediately before use. At different time points during protein aggregation, a 60 μL aliquot of resuspended protein solution was mixed with 440 μL of CR solution. Optical absorption spectra were acquired after 2–3 min equilibration at 25 °C, using a Cecil 7200 UV–visible spectrophotometer (Aquarius, Cambridge, England) and a 1 cm path-length cell.

[4] = biological target: T1, hen egg white lysozyme (HEWL); test: ThT fluorescence assay of HEWL amyloid fibril formation; assay type: biochemical; conditions: 48 h; for Relative efficacy as inhibitor in terms of IC50 value: HEWL 140 µM, pH 2.5, 57 °C; for IC50: HEWL 2 mg/mL (140 µM), 50 mM glycine buffer pH 2.5, 57 °C, stirring 250 rpm, compound 0.03-2.6 µM, Figure 2, read-out: IC50 of prevention of HEWL amyloid fibril formation
Procedure: The inhibition potential of the six compounds was determined using the ThT fluorescence assay to measure the amount of amyloid aggregates after the addition of various concentrations of each compound ranging from 0.03 to 2.6 µM. Aggregation of HEWL was induced by incubating the protein for 48 h at a concentration of 2 mg/mL (140 µM) in 50 mM glycine buffer, pH 2.5, and 57 °C, while stirred gently by magnetic bars (rpm 250), in the absence or presence of 0.03–2.6 µM compounds 1–6. […] The IC50 values of the compounds, corresponding to the concentration at which the inhibitory effect is half of the maximum effect, were determined (Figure 2).
as §3
A mother solution of 2.5 mM ThT was prepared in 10 mM sodium phosphate buffer, 150 mM NaCl, pH 7.0. It was then passed through a 0.45 μm filter paper and stored at 4 °C until it was placed at room temperature immediately before use. At regular time intervals, a 10 µL aliquot of protein solution was mixed with 990 μL of ThT solution in a 10 × 10 mm quartz cuvette and the fluorescence emission spectra were recorded at room temperature using a Cary Eclipse VARIAN fluorescence spectrophotometer (Varian, Mulgrave, Australia) and an excitation wavelength of 440 nm.

[5] = biological target: T1, hen egg white lysozyme (HEWL); test: FTIR spectroscopy of HEWL aggregates; assay type: biochemical; conditions: 0.32 µM compound, 48 h, resuspended in D2O
Procedure: New samples of HEWL aggregates with or without compounds 1–6 at a concentration of 0.32 µM were prepared, under the same conditions as those used for ThT and CR experiments, centrifuged after 48 h to collect the aggregates, resuspended at high concentration in D2O and analyzed with FTIR spectroscopy, to determine the effects of the six compounds on the secondary structure of the HEWL aggregates. […] Another peak is present at ca. 1650 cm^−1 attributable to either unordered or α-helical secondary structure.
Samples were incubated for 48 h to promote aggregation as described above in the presence of 0.32 µM compounds 1–6, centrifuged at 13,000× g for 10 min and resuspended in D2O to a final volume of 72.8 μL, to reach a final concentration of 27.8 mg/mL. For each sample, 40 μL was deposited onto an Omni-Cell transmission cell with a 25 μm spacer (Specac, Orpington, UK), and Fourier-transform infrared (FTIR) spectra were recorded using a FTS-40 FTIR spectrometer (Bio-Rad, Hercules, CA, USA) purged with a continuous flow of dry air. Sixty-four interferograms were accumulated in each case at a spectral resolution of 1 cm^−1. The FTIR absorbance spectra were blank-subtracted and baseline-corrected to reveal the amide I region (1600–1700 cm^−1). […]

[6] = biological target: T1, hen egg white lysozyme (HEWL); test: Atomic force microscopy of HEWL aggregates; assay type: biochemical; conditions: 0.32 µM compound, HEWL 140 µM, pH 2.5, 57 °C, 48 h
Procedure: In order to define further the nature of the aggregated species, an analysis of their morphologies was carried out using AFM. HEWL was incubated under the same aggregation conditions used for the ThT, CR, and FTIR experiments, i.e., for 48 h at a concentration of 2 mg/mL (140 µM) in 50 mM glycine buffer, pH 2.5, and 57 °C, under stirring (250 rpm), in the absence or presence of 0.32 µM of compounds 1–6 and the resulting samples were examined by AFM (Figure 6). […] Rather, oligomeric and/or amorphous species were predominant.
HEWL samples pre-incubated for 48 h under aggregating conditions with or without 0.32 µM compounds 1–6 were diluted 100 times in filtered deionized water. A 5 µL aliquot of each of the resulting samples was placed on freshly cleaved mica at room temperature. After a few minutes, the mica was slowly washed with 100 μL of deionized water and dried with N2. Each image was acquired in a non-contact mode at a scan speed of 30 μm/s, loop filter of 3 Hz and force of 200 nN with a Dual Scope Probe Scanner (Veeco, model Auto probe, CP-Research, CA, USA) with an area of 5 × 5 μm^2. Conical shape silicon tips (MikroMasch NSC16) with a resonance frequency of 150 kHz and a nominal constant of 40 N/m were used. Fifteen images were collected for each compound.

[7] = 24 h, 2 µM (monomer equivalents) HEWL aggregates formed in the presence of 0.32 µM compound
[8] = 24 h exposure, 2 µM (monomer equivalents), no compound

Molecule	Prevention of the apoptotic response (caspase-3 activation) induced by aggregates [1]	MTT reduction relative to untreated cells [2, 7] [%]	CR absorbance relative to that measured in the absence of the compounds [3]	Relative efficacy as inhibitor in terms of IC50 value [4]	IC50 [4] [nM]	melting point [°C]	Change of secondary structure of HEWL aggregates (amide I, loss of β-sheet) [5]	Activation of caspase-3 as compared to untreated cells ([1]; HEWL aggregates at 2 µM, no compound) [%]	MTT reduction relative to untreated cells [2, 8]	Rescue of cell viability (MTT reduction) ([2]; 24 h)	Morphology of HEWL aggregates by AFM [6]	Absorbance peak at 540 nm in CR difference spectra ([3]; 48 h, spectrum of CR alone subtracted)
Fc1ccc(-c2cc(-c3ccc(F)cc3)cc(-c3ccc(F)cc3)c2)cc1 [Compound 2, 1,3,5-tris(4-fluorophenyl)benzene]	significantly prevented	96.2 ± 3.2	lower	best inhibitor	50	238 to 240	most remarkable change	–	–	–	–	–
HEWL aggregates: hen egg white lysozyme aggregates formed 48 h at pH 2.5, 57 °C in the absence of compounds	–	–	–	–	–	–	–	320 ± 12	73.9 ± 2.1%	–	–	–
Cc1ccc(-c2cc(-c3ccc(C)cc3)cc(-c3ccc(C)cc3)c2)cc1 [Compound 4, 1,3,5-tris(4-methylphenyl)benzene]	significantly prevented	–	lower	–	400	178 to 179	–	–	–	partial rescue	–	–
COc1ccc(-c2cc(-c3ccc(OC)cc3)cc(-c3ccc(OC)cc3)c2)cc1 [Compound 5, 1,3,5-tris(4-methoxyphenyl)benzene]	significantly prevented	93.9 ± 2.9	lower	–	200	142 to 143	–	–	–	–	a few short fibrillar assemblies along with oligomeric species	–
native HEWL: native hen egg white lysozyme	–	–	–	–	–	–	–	–	unaffected	–	–	–
O=[N+]([O-])c1ccc(-c2cc(-c3ccc([N+](=O)[O-])cc3)cc(-c3ccc([N+](=O)[O-])cc3)c2)cc1 [Compound 3, 1,3,5-tris(4-nitrophenyl)benzene]	only a slight protective effect	–	lower	–	190	151 to 152	–	–	–	partial rescue	–	–
Oc1ccc(-c2cc(-c3ccc(O)cc3)cc(-c3ccc(O)cc3)c2)cc1 [Compound 6, 1,3,5-tris(4-hydroxyphenyl)benzene]	only a slight protective effect	–	markedly higher	minimum effect	980	237 to 239	–	–	–	partial rescue	a mixture of unbranched filamentous assemblies	only a modest decrease
c1ccc(-c2cc(-c3ccccc3)cc(-c3ccccc3)c2)cc1 [Compound 1, 1,3,5-triphenylbenzene]	significantly prevented	92.7 ± 3.2	lower	–	100	171 to 173	–	–	–	–	–	–

Source: paper PMC6888386, “Identification of Novel 1,3,5-Triphenylbenzene Derivative Compounds as Inhibitors of Hen Lysozyme Amyloid Fibril Formation” (International Journal of Molecular Sciences, 2019)
